Patent US8513303B2, “Antimicrobial agent” (De Montfort University, priority 2007, dated 2013)

How the values were obtained:
[1] = tested on: Bacillus subtilis subsp. spizizenii ATCC 6633 spore; assay: Testing for antimicrobial activity against spores (sporicidal suspension test); format: cell-based
Method: Spore suspensions were prepared based on the general principles of European quantitative suspension tests for evaluation of sporicidal activity (BS EN14347:2005: chemical disinfectants and antiseptics, basic sporicidal activity, test method and requirements (phase 1, step 1), London: British Standards Institute). Tryptone soya broth was seeded with spores from a previous batch and incubated at 37° C. to obtain an exponential growth phase culture. 10 mL of this culture was transferred into a Roux flask containing manganese-sulfate sporulation agar so that the inoculum came into contact with all of the surface of the agar. The Roux flasks were incubated at 37° C. for 2 days and for 21 days at 30° C., cultures were recovered, checked for sporulation and stored in water at 5° C. Sporicidal activity was then assessed using the method outlined previously (but with half the volume/weight of hydrogen peroxide, water, organism and catalyst) using 5 to 7.5% w/v hydrogen peroxide (see testing antimicrobial activity section). After neutralisation, a 1 mL sample was added to 12 to 15 mL of melted tryptone soya agar cooled to 45° C. Petri dishes were incubated for a minimum of 4 days and a maximum of 7 days at 37° C. and the log10 reduction in bacterial spore numbers calculated.

[2] = tested on: Pseudomonas aeruginosa ATCC 15442; assay: Antimicrobial activity of PAN catalyst under buffered neutral pH conditions at room temperature and 35° C.; format: cell-based; settings: 0.5% w/v H2O2; for log reduction: 35° C., held at neutral pH; for Mean log10 reduction in CFU/ml: room temperature, buffered at neutral pH
Method: Experiments were conducted using the method outlined previously (see testing antimicrobial activity section), but hydrogen peroxide and catalyst were prepared in phosphate buffer solution. Experiments were carried out at room temperature and 35° C.

## OO [Example H2O2, hydrogen peroxide]
[1]; 5% w/v H2O2, no air, 10 min
  Mean log10 reduction in CFU/ml: 1.02 (0.03) log10 CFU/ml
[1]; 5% w/v H2O2, no air, 30 min
  Mean log10 reduction in CFU/ml: 1.26 (0.12) log10 CFU/ml
[1]; 5% w/v H2O2, no air, 60 min
  Mean log10 reduction in CFU/ml: 1.90 (0.09) log10 CFU/ml
[1]; 5% w/v H2O2, no air, 120 min
  Mean log10 reduction in CFU/ml: 3.45 (0.27) log10 CFU/ml
[1]; 5% w/v H2O2, no air, 120 min, listed as hydrogen peroxide
  Mean log10 reduction in CFU/ml: 3.45 log10 CFU/ml
[1]; 7.5% w/v H2O2, no air, 10 min
  Mean log10 reduction in CFU/ml: 0.04 (0.11) log10 CFU/ml
[1]; 7.5% w/v H2O2, no air, 30 min
  Mean log10 reduction in CFU/ml: 0.19 (0.08) log10 CFU/ml
[1]; 7.5% w/v H2O2, no air, 60 min
  Mean log10 reduction in CFU/ml: 0.95 (0.01) log10 CFU/ml
[1]; 7.5% w/v H2O2, no air, 120 min
  Mean log10 reduction in CFU/ml: 4.22 (0.71) log10 CFU/ml
[1]; 7.5% w/v H2O2, no air, 120 min, listed as hydrogen peroxide
  Mean log10 reduction in CFU/ml: 4.22 log10 CFU/ml
[2]; air, 20 min
  log reduction: 3.13 log
[2]; air, 40 min
  log reduction: 3.41 log
[2]; no air, 50 min
  log reduction: 3.90 log
  Mean log10 reduction in CFU/ml: 1.92 log10 CFU/ml
[2]; air 2.5 L/min, 10 min
  Mean log10 reduction in CFU/ml: 1.37 log10 CFU/ml
[2]; air 2.5 L/min, 20 min
  Mean log10 reduction in CFU/ml: 1.46 log10 CFU/ml
[2]; air 2.5 L/min, 30 min
  Mean log10 reduction in CFU/ml: 1.71 log10 CFU/ml
[2]; air 2.5 L/min, 40 min
  Mean log10 reduction in CFU/ml: 1.61 log10 CFU/ml
[2]; air 2.5 L/min, 50 min
  Mean log10 reduction in CFU/ml: 1.75 log10 CFU/ml
[2]; air 2.5 L/min, 60 min
  Mean log10 reduction in CFU/ml: 1.90 log10 CFU/ml
[2]; no air, 10 min
  Mean log10 reduction in CFU/ml: 1.08 log10 CFU/ml
[2]; no air, 20 min
  Mean log10 reduction in CFU/ml: 1.49 log10 CFU/ml
[2]; no air, 30 min
  Mean log10 reduction in CFU/ml: 1.69 log10 CFU/ml
[2]; no air, 40 min
  Mean log10 reduction in CFU/ml: 1.79 log10 CFU/ml
[2]; no air, 60 min
  Mean log10 reduction in CFU/ml: 1.85 log10 CFU/ml
